What was measured:
[1] = biological target: T1, human dihydroorotate dehydrogenase (DHODH) (Homo sapiens (Human), UniProt Q02127); assay: DHODH enzyme assay, Assay B (DCIP absorbance, 384 well); assay type: biochemical; settings: 4 nM recombinant human DHODH
Method: (§1) Inhibition of human dihydroorotate dehydrogenase (DHODH) by example compounds as described herein was determined using one of two assays as described below.
Example compounds as described herein were dispensed with an acoustic liquid handler, Echo 550 (Labcyte) to a maximum volume of 50 nl per well in a 384 well plate. DHODH enzyme assays were performed with 4 nM recombinant human DHODH (purified essentially as described by Walse et. al., Biochemistry, 47, 8929-8936 (2008)). The reaction mixture consisted of 2 mM DL-dihydroorotic acid (#D7003, Sigma-Aldrich), 100 μM 3,4-dimethoxy-5-methyl-p-benzoquinone (#D9150, Sigma-Aldrich), and 200 μM 2,6-dichlorophenolindophenol sodium salt (DCIP) (#D1878, Sigma-Aldrich) in enzyme buffer (50 mM Tris-HCl pH 8.0, 0.1% Triton X-100, 150 mM KCl) in a final volume of 50 μl per well. A stock solution of 80 mM DCIP was prepared in DMSO just before use. Loss in absorbance by chromogen DCIP was measured at 595 nm at RT every 2 min for an hour with a plate reader (Envision, Perkin Elmer).

ARN8 melanoma cells = assay: Sulforhodamine B assay of cancer cell growth and/or viability; assay type: cell-based; settings: 72 hours; for viability at 2 µM: ARN8
Method: ARN8 melanoma cells are seeded at a density of 500 cells per well of a 96 well plate. Following 24 hours of incubation, cells are treated with increasing concentrations of the compound of Example 8 in the absence or presence of excess uridine (100 micromolar). Cells are incubated for 72 hours after which the growth medium is removed from the cells and replaced by […] of 1× sterile PBS and 50 μL of 40% trichloroacetic acid in dH2O. Samples are incubated at 4° C. for 1 h to fix the cells. The plate is then washed with 3 changes of water with all liquid allowed to drain from the plate. […] of 0.1% sulforhodamine B in 1% acetic acid in H2O is added to each well and incubated for 30 minutes. Excess dye is washed out with three changes of 1% acetic acid in H2O with all liquid allowed to drain from the plate. The remaining dye is solubilized in 100 microliters of 10 mM un-buffered basic Tris per well and absorbance read at 570 nm.

[2] = biological target: T1, human dihydroorotate dehydrogenase (DHODH); assay: DHODH enzyme assay, Assay A (DCIP absorbance); assay type: biochemical; settings: 6 nM recombinant human DHODH
Method: as §1
DHODH enzyme assays were performed with 6 nM recombinant human DHODH (purified essentially as described by Walse et. al., Biochemistry, 47, 8929-8936 (2008)). The reaction mixture consisted of 1 mM DL-dihydroorotic acid (#D7003, Sigma-Aldrich), 100 μM 3,4-dimethoxy-5-methyl-p-benzoquinone (#D9150, Sigma-Aldrich), and 100 μM 2,6-dichlorophenolindophenol sodium salt (DCIP) (#D1878, Sigma-Aldrich) in enzyme buffer (50 mM Tris-HCl pH 8.0, 0.1% Triton X-100, 150 mM KCl). A stock solution of 20 mM DCIP was prepared in enzyme buffer and filtered through Whatman paper just before use. Loss in absorbance by chromogen DCIP was measured at 595 nm at RT every 3 min for an hour.

T1 sequence (Q02127 29-395): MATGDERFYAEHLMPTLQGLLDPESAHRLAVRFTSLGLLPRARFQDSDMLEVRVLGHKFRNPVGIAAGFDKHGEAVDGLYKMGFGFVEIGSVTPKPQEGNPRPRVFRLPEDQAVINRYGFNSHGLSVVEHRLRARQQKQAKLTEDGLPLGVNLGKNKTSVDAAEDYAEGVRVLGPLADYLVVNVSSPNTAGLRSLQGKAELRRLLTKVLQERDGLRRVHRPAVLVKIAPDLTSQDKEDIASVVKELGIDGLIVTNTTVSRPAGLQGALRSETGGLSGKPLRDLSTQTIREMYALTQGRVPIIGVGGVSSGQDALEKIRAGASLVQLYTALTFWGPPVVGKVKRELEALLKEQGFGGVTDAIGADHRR

Structure (SMILES): Cc1cnc(C(=O)N[C@@H]2CCCc3c2cnn3-c2ccccc2F)cn1 (single isomer, unassigned) [Example 15, N-[(4R*)-1-(2-fluorophenyl)-4,5,6,7-tetrahydro-1H-indazol-4-yl]-5-methylpyrazine-2-carboxamide]
- IC50 [1]: 0.735 µM

Structure (SMILES): O=C(N[C@H]1CCCc2c1cnn2-c1ccccc1F)c1ccccn1 [Example 2, (S)—N-(1-(2-Fluorophenyl)-4,5,6,7-tetrahydro-1H-indazol-4-yl)picolinamide]
- viability at 2 µM (ARN8 melanoma cells; absence of excess uridine): 100%

Structure (SMILES): O=C(N[C@@H]1CCCc2c1cnn2-c1ccccc1F)c1ccccn1 [Example 3, (R)—N-(1-(2-fluorophenyl)-4,5,6,7-tetrahydro-1H-indazol-4-yl)picolinamide]
- viability at 2 µM (ARN8 melanoma cells; absence of excess uridine): 30%

Structure (SMILES): O=C(NC1CCCc2c1cnn2-c1ccccc1F)c1cscn1 (stereo not drawn) [Example 4, N-[1-(2-fluorophenyl)-4,5,6,7-tetrahydro-1H-indazol-4-yl]-1,3-thiazole-4-carboxamide]
- IC50 [2]: 1.11 µM
- viability at 2 µM (ARN8 melanoma cells; absence of excess uridine): 52%

Structure (SMILES): O=C(NC1CCCc2c1cnn2-c1ccc(F)cc1F)c1onc2c1CCCC2 (stereo not drawn) [Example 5, N-(1-(2,4-difluorophenyl)-4,5,6,7-tetrahydro-1H-indazol-4-yl)-4,5,6,7-tetrahydrobenzo[c]isoxazole-3-carboxamide]
- IC50 [2]: 0.29 µM
- viability at 2 µM (ARN8 melanoma cells; absence of excess uridine): 22%

Structure (SMILES): Cc1cc(C(=O)NC2CCCc3c2cnn3-c2ccc(C)c(C)c2)no1 (stereo not drawn) [Example 6, N-[1-(3,4-dimethylphenyl)-4,5,6,7-tetrahydro-1H-indazol-4-yl]-5-methyl-3-isoxazolecarboxamide]
- IC50 [2]: 5.83 µM
- viability at 2 µM (ARN8 melanoma cells; absence of excess uridine): 105%

Structure (SMILES): COC(=O)c1ccc(C(=O)NC2CCCc3c2cnn3-c2ccccc2F)nc1 (stereo not drawn) [Example 7, Methyl 6-({[1-(2-fluorophenyl)-4,5,6,7-tetrahydro-1H-indazol-4-yl]amino}carbonyl)nicotinate]
- IC50 [2]: > 10 µM
- viability at 2 µM (ARN8 melanoma cells; absence of excess uridine): 28%

Structure (SMILES): O=C(NC1CCCc2c1cnn2-c1ccccc1F)c1onc2c1CCCC2 (stereo not drawn) [Example 8, N-(1-(2-fluorophenyl)-4,5,6,7-tetrahydro-1H-indazol-4-yl)-4,5,6,7-tetrahydrobenzo[c]isoxazole-3-carboxamide]
- IC50 [2]: 0.032 µM
- ARN8 melanoma cell growth and/or viability (ARN8 melanoma cells; absence of excess uridine, FIG. 2): reduces ARN8 melanoma cell growth and/or viability
- effect on ARN8 melanoma cell growth and/or viability with excess uridine (ARN8 melanoma cells; excess uridine (100 micromolar), FIG. 2): largely prevented by the addition of excess uridine
- viability at 2 µM (ARN8 melanoma cells; absence of excess uridine): 48%

Structure (SMILES): COC(=O)c1ccc(C(=O)NC2CCCc3c2cnn3-c2cc(F)cc(F)c2)nc1 (stereo not drawn) [Example 9, Methyl 6-({[1-(3,5-difluorophenyl)-4,5,6,7-tetrahydro-1H-indazol-4-yl]amino}carbonyl)nicotinate]
- IC50 [2]: > 10 µM
- viability at 2 µM (ARN8 melanoma cells; absence of excess uridine): 8%

Structure (SMILES): CCc1cc(C(=O)NC2CCCc3c2cnn3-c2ccc(F)cc2F)no1 (stereo not drawn) [Example 10, N-[1-(2,4-difluorophenyl)-4,5,6,7-tetrahydro-1H-indazol-4-yl]-5-ethyl-3-isoxazolecarboxamide]
- IC50 [2]: 2.44 µM
- viability at 2 µM (ARN8 melanoma cells; absence of excess uridine): 92%

Structure (SMILES): CSc1nc(C(=O)NC2CCCc3c2cnn3-c2ccc(F)cc2F)cs1 (stereo not drawn) [Example 11, N-[1-(2,4-difluorophenyl)-4,5,6,7-tetrahydro-1H-indazol-4-yl]-2-(methylthio)-1,3-thiazole-4-carboxamide]
- IC50 [2]: 8.2 µM
- viability at 2 µM (ARN8 melanoma cells; absence of excess uridine): 93%

Structure (SMILES): O=C(N[C@@H]1CCCc2c1cnn2-c1ccccc1F)c1onc2c1CCCC2 [Example 14, N-[(4R)-1-(2-fluorophenyl)-4,5,6,7-tetrahydro-1H-indazol-4-yl]-4,5,6,7-tetrahydro-2,1-benzoxazole-3-carboxamide]
- IC50 [1]: 0.009 µM

Structure (SMILES): Cc1ccccc1-n1ncc2c1CCC[C@H]2NC(=O)c1cc2ccccc2o1 [Example 17, N-[(4R)-1-(2-methylphenyl)-4,5,6,7-tetrahydro-1H-indazol-4-yl]-1-benzofuran-2-carboxamide]
- IC50 [1]: 0.124 µM

Structure (SMILES): Cc1ccccc1-n1ncc2c1CCC[C@H]2NC(=O)c1oc2ccccc2c1C [Example 18, 3-methyl-N-[(4R)-1-(2-methylphenyl)-4,5,6,7-tetrahydro-1H-indazol-4-yl]-1-benzofuran-2-carboxamide]
- IC50 [1]: 0.459 µM

Structure (SMILES): Cc1ccccc1-n1ncc2c1CCC[C@H]2NC(=O)c1sccc1C [Example 19, 3-methyl-N-[(4R)-1-(2-methylphenyl)-4,5,6,7-tetrahydro-1H-indazol-4-yl]thiophene-2-carboxamide]
- IC50 [1]: 0.136 µM

Structure (SMILES): Cc1ccccc1-n1ncc2c1CCC[C@H]2NC(=O)c1ccccn1 [Example 20, N-[(4R)-1-(2-methylphenyl)-4,5,6,7-tetrahydro-1H-indazol-4-yl]pyridine-2-carboxamide]
- IC50 [1]: 0.355 µM

Structure (SMILES): Cc1ccccc1-n1ncc2c1CCC[C@H]2NC(=O)c1cccnc1O [Example 21, 2-hydroxy-N-[(4R)-1-(2-methylphenyl)-4,5,6,7-tetrahydro-1H-indazol-4-yl]pyridine-3-carboxamide]
- IC50 [1]: 0.881 µM

Structure (SMILES): Cc1ccc(C(=O)N[C@@H]2CCCc3c2cnn3-c2ccccc2C)nc1 [Example 24, 5-methyl-N-[(4R)-1-(2-methylphenyl)-4,5,6,7-tetrahydro-1H-indazol-4-yl]pyridine-2-carboxamide]
- IC50 [1]: 0.066 µM

Structure (SMILES): Cc1ccccc1-n1ncc2c1CCC[C@H]2NC(=O)c1ncccc1C [Example 26, 3-methyl-N-[(4R)-1-(2-methylphenyl)-4,5,6,7-tetrahydro-1H-indazol-4-yl]pyridine-2-carboxamide]
- IC50 [1]: 0.096 µM

Structure (SMILES): O=C(N[C@@H]1CCCc2c1cnn2-c1ccccc1F)c1noc2ccccc12 [Example 28, N-[(4R)-1-(2-fluorophenyl)-4,5,6,7-tetrahydro-1H-indazol-4-yl]-1,2-benzoxazole-3-carboxamide]
- IC50 [1]: 0.018 µM

Structure (SMILES): O=C(N[C@@H]1CCCc2c1cnn2-c1ccccc1F)c1nc2ccccc2o1 [Example 33, N-[(4R)-1-(2-fluorophenyl)-4,5,6,7-tetrahydro-1H-indazol-4-yl]-1,3-benzoxazole-2-carboxamide]
- IC50 [1]: 0.088 µM

Structure (SMILES): O=C(N[C@@H]1CCCc2c1cnn2-c1ccccc1F)c1cc2ccccc2[nH]1 [Example 35, N-[(4R)-1-(2-fluorophenyl)-4,5,6,7-tetrahydro-1H-indazol-4-yl]-1H-indole-2-carboxamide]
- IC50 [1]: 2.67 µM

Structure (SMILES): COc1cc(C(=O)N[C@@H]2CCCc3c2cnn3-c2ccccc2F)nc2ccccc12 [Example 38, (R)—N-(1-(2-fluorophenyl)-4,5,6,7-tetrahydro-1H-indazol-4-yl)-4-methoxyquinoline-2-carboxamide]
- IC50 [1]: 2.08 µM

Structure (SMILES): O=C(N[C@@H]1CCCc2c1cnn2-c1ccccc1F)c1ccc(C(F)(F)F)cn1 [Example 40, N-[(4R)-1-(2-fluorophenyl)-4,5,6,7-tetrahydro-1H-indazol-4-yl]-5-(trifluoromethyl)pyridine-2-carboxamide]
- IC50 [1]: 2 µM

Structure (SMILES): Cc1ccnc(C(=O)NC2CCCc3c2cnn3-c2ccccc2)c1 (stereo not drawn) [Example 43, 4-methyl-N-(1-phenyl-4,5,6,7-tetrahydro-1H-indazol-4-yl)pyridine-2-carboxamide]
- IC50 [1]: 0.441 µM

Structure (SMILES): Cc1cccc(C(=O)N[C@@H]2CCCc3c2cnn3-c2ccccc2C)n1 [Example 45, 6-methyl-N-[(4R)-1-(2-methylphenyl)-4,5,6,7-tetrahydro-1H-indazol-4-yl]pyridine-2-carboxamide]
- IC50 [1]: > 3 µM

Structure (SMILES): O=C(N[C@@H]1CCCc2c1cnn2-c1ccccc1F)c1ncn2c1CCCC2 [Example 46, (R)—N-(1-(2-fluorophenyl)-4,5,6,7-tetrahydro-1H-indazol-4-yl)-5,6,7,8-tetrahydroimidazo[1,5-a]pyridine-1-carboxamide]
- IC50 [1]: 0.006 µM

Structure (SMILES): CC(C)OC(=O)c1cccc(-n2ncc3c2CCC[C@H]3NC(=O)c2noc3c2CCCC3)c1 [Example 52, Propan-2-yl-3-[(4R)-4-(4,5,6,7-tetrahydro-1,2-benzoxazole-3-amido)-4,5,6,7-tetrahydro-1H-indazol-1-yl]benzoate]
- IC50 [1]: 0.011 µM

Structure (SMILES): O=C(N[C@@H]1CCCc2c1cnn2-c1cccc(C(=O)N2CCOCC2)c1)c1noc2c1CCCC2 [Example 53, N-[(4R)-1-[3-(morpholine-4-carbonyl)phenyl]-4,5,6,7-tetrahydro-4H-indazol-4-yl]-4,5,6,7-tetrahydro-1,2-benzoxazole-3-carboxamide]
- IC50 [1]: 0.22 µM
